Assays:
[1] = target: T1, human orexin-2 receptor (Homo sapiens, UniProt O43614); test: Intracellular calcium measurement (FLIPR Tetra), orexin receptor antagonistic activity, OX2; format: cell-based; settings: CHO cells expressing human orexin-2 receptor, 3 nM orexin-A
T1 construct: expressed in transfected cells; host or cells: CHO (Chinese hamster ovary) cells, kept under G418 selection
T1 sequence (O43614 1-444): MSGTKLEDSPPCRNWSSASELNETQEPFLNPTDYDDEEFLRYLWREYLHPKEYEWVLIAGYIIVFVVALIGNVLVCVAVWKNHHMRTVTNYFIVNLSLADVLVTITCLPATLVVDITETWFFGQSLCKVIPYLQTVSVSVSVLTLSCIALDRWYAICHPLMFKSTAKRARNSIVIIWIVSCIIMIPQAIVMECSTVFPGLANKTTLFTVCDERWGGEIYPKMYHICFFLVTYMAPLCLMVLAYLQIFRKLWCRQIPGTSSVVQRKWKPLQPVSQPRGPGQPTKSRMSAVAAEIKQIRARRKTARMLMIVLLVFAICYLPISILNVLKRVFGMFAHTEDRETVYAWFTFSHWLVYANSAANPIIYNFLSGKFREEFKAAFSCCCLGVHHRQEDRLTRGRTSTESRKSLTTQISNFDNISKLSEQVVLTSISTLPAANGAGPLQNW
Outline: (§1)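 Recombinant CHO cells expressing human OX1 or OX2, loaded with fluo-4 AM plus probenecid, were preincubated with antagonist 10 min, then stimulated with 3 nM human orexin-A. Peak fluorescence was compared with vehicle; IC50 derived, sometimes normalized to an on-plate reference compound; two pipetting/cell-splitting conditions were used.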

[2] = target: T2, human orexin-1 receptor (Homo sapiens, UniProt O43613); test: Intracellular calcium measurement (FLIPR Tetra), orexin receptor antagonistic activity, OX1; format: cell-based; settings: CHO cells expressing human orexin-1 receptor, 3 nM orexin-A
T2 construct: expressed in transfected cells; host or cells: CHO (Chinese hamster ovary) cells, kept under G418 selection
T2 sequence (O43613 1-425): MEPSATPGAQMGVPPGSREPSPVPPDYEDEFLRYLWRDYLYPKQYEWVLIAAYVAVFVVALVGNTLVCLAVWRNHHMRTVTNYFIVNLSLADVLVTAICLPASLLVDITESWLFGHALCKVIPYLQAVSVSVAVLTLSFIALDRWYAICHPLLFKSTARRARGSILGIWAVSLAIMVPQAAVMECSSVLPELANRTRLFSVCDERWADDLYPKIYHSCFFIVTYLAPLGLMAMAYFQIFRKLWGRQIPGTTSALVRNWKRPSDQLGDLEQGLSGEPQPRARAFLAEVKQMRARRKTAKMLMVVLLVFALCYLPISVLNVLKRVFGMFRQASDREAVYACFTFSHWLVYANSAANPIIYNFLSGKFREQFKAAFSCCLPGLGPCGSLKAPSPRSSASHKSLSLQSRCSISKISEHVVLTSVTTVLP
Outline: as §1

[3] = conditions B, normalized (*) using IC50 of on-plate reference compound

Row | SMILES | IC50 [1, 3] [nM] | IC50 [2, 3] [nM] | also measured
1 | COc1ccc(CCN(CC2CC2)C(=O)c2c(-c3ccccc3)nnc3ccccc23)cc1OC [Example 51, 3-Phenyl-cinnoline-4-carboxylic acid cyclopropylmethyl-[2-(3,4-dimethoxy-phenyl)-ethyl]-amide] | – | – | IC50 ([1]; conditions A): 34 nM; IC50 ([2]; conditions A): 1440 nM
2 | COc1ccc(CCN(C(=O)c2nc(N)sc2-c2cccc(C)c2)C2CC2)cc1OC [Example 122, 2-Amino-5-m-tolyl-thiazole-4-carboxylic acid cyclopropyl-[2-(3,4-dimethoxy-phenyl)-ethyl]-amide] | – | – | IC50 ([1]; conditions B): 2 nM; IC50 ([2]; conditions B): 15 nM
3 | Cc1ccc(-c2nccnc2C(=O)N(CCc2c[nH]c3ccc(F)cc23)CC(F)F)cc1C [Example 297, 3-(3,4-Dimethyl-phenyl)-pyrazine-2-carboxylic acid (2,2-difluoro-ethyl)-[2-(5-fluoro-1H-indol-3-yl)-ethyl]-amide] | 136 | 702 | –
4 | Cc1cccc(-c2sc(N)nc2C(=O)N(CCc2c[nH]c3cc(Cl)ccc23)CC2CC2)c1 [Example 224, 2-Amino-5-m-tolyl-thiazole-4-carboxylic acid [2-(6-chloro-1H-indol-3-yl)-ethyl]-cyclopropylmethyl-amide] | – | – | IC50 ([1]; conditions B): 26 nM; IC50 ([2]; conditions B): 8 nM
5 | COc1ccc(CCN(CC(=O)N(C)C)C(=O)c2nc(N)sc2-c2cccc(C)c2)cc1OC [Example 135, 2-Amino-5-m-tolyl-thiazole-4-carboxylic acid [2-(3,4-dimethoxy-phenyl)-ethyl]-dimethylcarbamoylmethyl-amide] | – | – | IC50 ([1]; conditions B): 145 nM; IC50 ([2]; conditions B): > 10000 nM
6 | CCCN(CCc1ccc(OC)c(OC)c1)C(=O)c1nc(N)sc1-c1cccc(C)c1 [Example 110, 2-Amino-5-m-tolyl-thiazole-4-carboxylic acid [2-(3,4-dimethoxy-phenyl)-ethyl]-propyl-amide] | – | – | IC50 ([1]; conditions B): 2 nM; IC50 ([2]; conditions B): 21 nM
7 | Cc1nc(C(=O)N(CCc2ccc3c(c2)OCCO3)CC2CC2)c(-c2ccc(C)c(C)c2)s1 [Example 198, 5-(3,4-Dimethyl-phenyl)-2-methyl-thiazole-4-carboxylic acid cyclopropylmethyl-[2-(2,3-dihydro-benzo[1,4]dioxin-6-yl)-ethyl]-amide] | – | – | IC50 ([1]; conditions B): 65 nM; IC50 ([2]; conditions B): 1070 nM
8 | COc1ccc(CCN(CC(C)C)C(=O)c2nc(N)sc2-c2cccc(C)c2)cc1OC [Example 113, 2-Amino-5-m-tolyl-thiazole-4-carboxylic acid [2-(3,4-dimethoxy-phenyl)-ethyl]-isobutyl-amide] | – | – | IC50 ([1]; conditions B): 8 nM; IC50 ([2]; conditions B): 328 nM
9 | Cc1ccc(-c2sc(C3CC3)nc2C(=O)N(CCc2c[nH]c3ccc(F)cc23)CC2CC2)cc1F [Example 276, 2-Cyclopropyl-5-(3-fluoro-4-methyl-phenyl)-thiazole-4-carboxylic acid cyclopropylmethyl-[2-(5-fluoro-1H-indol-3-yl)-ethyl]-amide] | 601 | 2260 | –
10 | COc1ccc(-c2sc(C)nc2C(=O)N(CCc2c[nH]c3ccc(F)cc23)CC(F)F)cn1 [Example 307, 5-(6-Methoxy-pyridin-3-yl)-2-methyl-thiazole-4-carboxylic acid (2,2-difluoro-ethyl)-[2-(5-fluoro-1H-indol-3-yl)-ethyl]-amide] | 20 | 345 | –
11 | COc1ccc(C(O)CN(CC2CC2)C(=O)c2c(-c3ccccc3)nc3ccc(Cl)cn23)cc1OC (stereo not shown) [Example 97, 6-Chloro-2-phenyl-imidazo[1,2-a]pyridine-3-carboxylic acid cyclopropylmethyl-[2-(3,4-dimethoxy-phenyl)-2-hydroxy-ethyl]-amide] | – | – | IC50 ([1]; conditions A): 263 nM; IC50 ([2]; conditions A): 4920 nM
12 | COCCN(CCc1ccc(OC)c(OC)c1)C(=O)c1nc(N)sc1-c1cccc(C)c1 [Example 128, 2-Amino-5-m-tolyl-thiazole-4-carboxylic acid [2-(3,4-dimethoxy-phenyl)-ethyl]-(2-methoxy-ethyl)-amide] | – | – | IC50 ([1]; conditions B): 4 nM; IC50 ([2]; conditions B): 71 nM
13 | Cc1ccc2[nH]cc(CCN(CC3CC3)C(=O)c3nccnc3-c3ccccc3)c2c1 [Example 324, 3-Phenyl-pyrazine-2-carboxylic acid cyclopropylmethyl-[2-(5-methyl-1H-indol-3-yl)-ethyl]-amide] | 8 | 77 | –
14 | COc1ccc(C(O)CN(CC2CC2)C(=O)c2nc(Br)sc2-c2cccc(C)c2)cc1OC (stereo not shown) [Example 56, 2-Bromo-5-m-tolyl-thiazole-4-carboxylic acid cyclopropylmethyl-[2-(3,4-dimethoxy-phenyl)-2-hydroxy-ethyl]-amide] | – | – | IC50 ([1]; conditions A): 299 nM; IC50 ([2]; conditions A): 697 nM

Continued, in another order:

Row | IC50 [1, 3] [nM] | IC50 [2, 3] [nM] | SMILES | also measured
15 | 89 | 1860 | COc1ccc2nc(CCN(CC3CC3)C(=O)c3ncccc3-c3ccc(OC)nc3)[nH]c2c1 [Example 371, 6′-Methoxy-[3,3′]bipyridinyl-2-carboxylic acid cyclopropylmethyl-[2-(6-methoxy-1H-benzoimidazol-2-yl)-ethyl]-amide] | –
16 | 151 | 2930 | CCN(CCc1c[nH]c2ccccc12)C(=O)c1cncnc1-c1cccc(OC)c1 [Example 541, 4-(3-Methoxy-phenyl)-pyrimidine-5-carboxylic acid ethyl-[2-(1H-indol-3-yl)-ethyl]-amide] | –
17 | 212 | 425 | Cc1cc(F)cc(-c2nccnc2C(=O)N(CCc2c[nH]c3ccccc23)CC(F)(F)F)c1 [Example 556, 3-(3-Fluoro-5-methyl-phenyl)-pyrazine-2-carboxylic acid [2-(1H-indol-3-yl)-ethyl]-(2,2,2-trifluoro-ethyl)-amide] | –
18 | 9 | 262 | CCN(CCc1c[nH]c2ccccc12)C(=O)c1cncnc1-c1ccc(Br)c(Cl)c1 [Example 536, 4-(4-Bromo-3-chloro-phenyl)-pyrimidine-5-carboxylic acid ethyl-[2-(1H-indol-3-yl)-ethyl]-amide] | –
19 | 35 | 102 | Cc1ccc(-c2nccnc2C(=O)N(CCc2nc3cc(C)c(C)cc3[nH]2)CC2CC2)cc1C [Example 374, 3-(3,4-Dimethyl-phenyl)-pyrazine-2-carboxylic acid cyclopropylmethyl-[2-(5,6-dimethyl-1H-benzoimidazol-2-yl)-ethyl]-amide] | –
20 | 17 | 36 | O=C(c1cncnc1-c1ccc(Br)c(Cl)c1)N(CCc1c[nH]c2ccccc12)CC1CC1 [Example 513, 4-(4-Bromo-3-chloro-phenyl)-pyrimidine-5-carboxylic acid cyclopropylmethyl-[2-(1H-indol-3-yl)-ethyl]-amide] | –
21 | 211 | 28 | CN(C)c1nc(C(=O)N(CCc2c[nH]c3cc(F)c(Cl)cc23)CC2CC2)c(-c2ccccc2)s1 [Example 472, 2-Dimethylamino-5-phenyl-thiazole-4-carboxylic acid [2-(5-chloro-6-fluoro-1H-indol-3-yl)-ethyl]-cyclopropylmethyl-amide] | –
22 | 28 | 461 | COc1ncc(-c2nccnc2C(=O)N(CCc2c[nH]c3c(C)cccc23)CC2CC2)cn1 [Example 439, 3-(2-Methoxy-pyrimidin-5-yl)-pyrazine-2-carboxylic acid cyclopropylmethyl-[2-(7-methyl-1H-indol-3-yl)-ethyl]-amide] | –
23 | 816 | > 5420 | Cc1ccc(-c2nccnc2C(=O)N(CCN)CCc2c[nH]c3ccc(F)cc23)cc1C [Example 434, 3-(3,4-Dimethyl-phenyl)-pyrazine-2-carboxylic acid (2-amino-ethyl)-[2-(5-fluoro-1H-indol-3-yl)-ethyl]amide] | –
24 | 60 | 35 | COc1ccc(-c2cccnc2C(=O)N(CCc2c[nH]c3cc(F)ccc23)CC2CC2)cn1 [Example 361] | –
25 | 230 | 3830 | O=C(c1ncccc1-c1cc(Cl)cnc1F)N(CCc1c[nH]c2ccc(F)cc12)CC1CC1 [Example 403, 5′-Chloro-2′-fluoro-[3,3′]bipyridinyl-2-carboxylic acid cyclopropylmethyl-[2-(5-fluoro-1H-indol-3-yl)-ethyl]-amide] | –
26 | 10 | 227 | O=C(c1cncnc1-c1ccccc1)N(CCc1c[nH]c2ccccc12)CC1CC1 [Example 497, 4-Phenyl-pyrimidine-5-carboxylic acid cyclopropylmethyl-[2-(1H-indol-3-yl)-ethyl]-amide] | –

Source: patent publication US20110212968A1, “PHENETHYLAMIDE DERIVATIVES AND THEIR HETEROCYCLIC ANALOGUES” (priority 2008, published 2011)
